Measured values reported in article PMC13234881, “Synthesis and Cytotoxicity of Complex Betulinic Acid Amides” (ACS Omega, 2026).

Legend:
breast carcinoma MCF7 = test: Cytotoxicity screening test, MCF7; format: cell-based; settings: Homo sapiens; MCF7 breast adenocarcinoma, 72 h; read-out: Cytotoxicity IC50 ± SD, MCF7
Text: (§1) The screening cell lines, T-lymphoblastic leukemia CCRF-CEM, breast carcinoma MCF7, cervical carcinoma HeLa, and human foreskin fibroblasts BJ, were obtained from the American Type Culture Collection (Manassas, VA, USA). The procedure for cell culturing has already been described. ,

cervical carcinoma HeLa = test: Cytotoxicity screening test, HeLa; format: cell-based; settings: Homo sapiens; HeLa cervical cancer, 72 h; read-out: Cytotoxicity IC50 ± SD, HeLa
Text: as §1

COc1cccc2c1C(=O)c1c(O)c3c(c(O)c1C2=O)C[C@@](O)(C(=O)CO)C[C@@H]3O[C@H]1C[C@H](N)[C@H](O)[C@H](C)O1 [doxorubicin]
IC50 (breast carcinoma MCF7): 273 ± 19 nM
IC50 (cervical carcinoma HeLa): 868 ± 54 nM
